Assay [1] can be described thus: loss of viability in hepatoma HepG2 cells – cell-based, ATP luminescence, dry powder, cytotoxicity control, dose response (AID 652118). In kind it is functional.
For assay [2], the target named is Protein disulfide-isomerase (Homo sapiens, UniProt P07237). Briefly: inhibition of PDI-mediated insulin reduction – biochemical, turbidity, dry powder samples, set 2, confirmation (AID 652146).
A short description of assay [3]: cytotoxicity in MITF-independent A375 cells – cell-based, CellTiter-Glo luminescence, dry powder, set 4, counter-screen for MITF inhibitor project, dose response (AID 624364).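 Also: A375 melanoma cells are MITF independent so this is a counter screen.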 Type of assay: functional. The following applies: A-375. On the technique in general: In ATP-based viability assays light output follows the ATP content of the culture.
The nature of assay [4]: viability loss in MITF-independent A375 cells – cell-based, CellTiter-Glo luminescence, dry powder, set 2, counter-screen for MITF inhibitor project, dose response (AID 624489).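 Also: actives are compounds lowering A375 viability meaning general cytotoxicity.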 In kind it is functional. The settings on record: A-375.
For assay [5], the system named is BJ. Briefly: BJ-TERT fibroblast viability loss – cell-based, RAS-independent, luminescence, dose response (AID 1933). In kind it is functional. The following applies: Homo sapiens.
In assay [6] the test system is BJ. Briefly: cells. Type of assay: functional, cell-based. The settings on record: Homo sapiens.
Assay [7] concerns BJ. Briefly: BJ-TERT-LT-ST fibroblast viability loss – cell-based, RAS-independent, luminescence, dose response (AID 1935).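 Also: BJ fibroblasts immortalized with TERT plus LT and ST oncogenes.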 The settings on record: Homo sapiens. Type of assay: functional.
A short description of assay [8]: DRD fibroblast viability loss – cell-based, non-viral oncogenic, luminescence, dose response (AID 1934). Type of assay: functional. The settings on record: Homo sapiens.
The nature of assay [9]: rescue of ΔF508 CFTR function, airway epithelium – human bronchial epithelial cells, plate reader, cherry-pick, two tests, dose response (AID 743267). In kind it is functional, cell-based.
A further assay has as its target Kallikrein-7 (Homo sapiens, UniProt P49862). Briefly: Fluorescence Intensity-based biochemical primary high throughput dose response assay to identify activators of kallikrein-7 (K7) zymogen.
Assay [10] in a line: decrease of insulin promoter-GFP reporter – imaging, high-content screening, mouse beta cells (AID 1628). In kind it is functional. The following applies: MIN6.
Assay [11] is described as follows: MIN6 cell viability loss – mouse insulinoma, cytotoxicity control, dose response (AID 2122).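 Also: confirmatory high-throughput counterscreen run to flag cytotoxic compounds.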 Type of assay: functional.
The test system of the next assay is INS1. Briefly: INS-1E survival protection against cytokine death – cell-based, luminescence, retest, dose response (AID 449756).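 Also: cell death triggered by IL-1 beta plus TNF-alpha plus IFN-gamma mixture; protective hits raise ATP signal compared with cytokine alone wells.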 Type of assay: functional. The following applies: Rattus norvegicus.
Assay [12] in a line: reduction of Shn3 3'UTR-driven luciferase in osteoblasts – cell-based, Clone20 osteoblasts, firefly luciferase, cherry-picked, dose response (AID 624132).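 Also: firefly luciferase luminescence from reporter carrying the Shn3 3'UTR in osteoblasts.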 In kind it is functional.
Assay [13] is described as follows: loss of viability in HepG2 cells – cell-based, CellTiter-Glo, cherry-picked, cytotoxicity control for Shn3 inhibitor project, dose response (AID 624134). In kind it is functional.
The nature of assay [14]: non-specific 3'UTR reporter inhibition in Clone20-Shn3RL – cell-based, Renilla luciferase, cherry-picked, counter-screen for Shn3 inhibitor project, dose response (AID 624133). In kind it is functional. In general terms: A counterscreen serves to expose hits that act by an unwanted route or on another target.
The nature of assay [15]: Shn3 3'UTR reporter signal decrease – cell-based, Clone20 osteoblasts, firefly luciferase, cherry-pick, set 2, Schnurri-3 inhibitor project, dose response (AID 720490).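 Also: actives lower the luminescence signal as inhibitors.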 In kind it is functional.
The target of assay [16] is Potassium channel subfamily K member 9 (Homo sapiens, UniProt Q9NPC2). Briefly: KCNK9 flux blockade, concentration-response – cell-based, FluxOR thallium flux, selectivity assay for TASK1 inhibitor project, SAR follow-up (AID 652211).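 Also: potency is for inhibitors of the channel.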 Type of assay: functional.
For assay [17], the target named is Potassium channel subfamily K member 3 (Homo sapiens, UniProt O14649). Briefly: inhibition of human KCNK3 channel flux – CHO cells, FluxOR thallium flux, SAR follow-up (AID 652212). Type of assay: functional.
Assay [18] can be described thus: Late stage counterscreen for inhibitors of Trypanosoma brucei methionyl tRNA synthetase (MetRS): Luminescence-based cell-based high throughput dose response assay to identify compounds that are cytotoxic to Jurkat human T lymphocyte cells. Type of assay: functional.
For assay [19], the target named is T1, NAD-dependent protein deacylase sirtuin-5, mitochondrial (Homo sapiens, UniProt Q9NXA8). Briefly: sirtuin-5 deacylation blockers, concentration series – biochemical, fluorescence imaging, cherry-pick, set 5, dose response (AID 720591).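 Also: desuccinylation of succinyl peptide AMC substrate read as fluorescence after trypsin release; potency of inhibitors that lower fluorescence and may act on trypsin instead.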
The target in another assay is Paired box protein Pax-8 (Homo sapiens, UniProt Q06710). Briefly: PAX8 transcriptional activity inhibition in RMG-I – RMG-I cells, luciferase, cherry-pick, dose response (AID 687027).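 Also: luciferase reporter driven by Pax8 target thyroperoxidase promoter measured by SteadyGlo luminescence.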 In kind it is functional, cell-based.
Assay [20] in a line: reduced cellular PGC1a acetyl-lysine signal – cell-based, cherry-picked samples, dose response (AID 720514).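 Also: potency may reflect raised or lowered acetylation signal.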 Type of assay: functional.
Assay [21] is described as follows: IGROV1 cell killing – plate reader, dry powder samples, PAX8 inhibitor project, dose response (AID 743043). In kind it is functional, cell-based. The following applies: IGROV-1.
Assay [22] can be described thus: general cell-killing toxicity readout – plate reader, dry powder samples, cytotoxicity control for PAX8 inhibitor project, dose response (AID 743021). Type of assay: functional, cell-based.
Assay [23] can be described thus: OVCAR8 cell viability loss – plate reader, dry powder samples, PAX8 project, dose response (AID 743197). The settings on record: OVCAR-8. Type of assay: functional, cell-based.
Assay [24] can be described thus: P. falciparum Dd2 growth inhibitors, dose response, SYBR Green, cherry-picked samples (AID 1159567). In kind it is functional, cell-based.
The nature of assay [25]: toxicity to human hepatoma HepG2 cells – cell-based, cherry-picked samples, cytotoxicity control, dose response (AID 1159577). In kind it is functional.
In assay [26] the target is T1, NAD-dependent protein deacylase sirtuin-5, mitochondrial. Briefly: blockers of sirtuin-5 peptide desuccinylation – biochemical, fluorescence imaging, cherry-pick, set 6, dose response (AID 720597).
In assay [27] the target is C-X-C chemokine receptor type 4 (Homo sapiens, UniProt P61073). Briefly: SAR analysis of small molecule antagonists of the CXCR6 receptor using a CXCR4 receptor luminescent beta-arrestin counterscreen. Type of assay: functional.
Assay [28] addresses C-C chemokine receptor type 6 (Homo sapiens, UniProt P51684). Briefly: SAR analysis of small molecule antagonists of the CXCR6 receptor using a CCR6 receptor luminescent beta-arrestin counterscreen. In kind it is functional.
Assay [29] deals with T2, Ubiquitin-conjugating enzyme E2 N (Homo sapiens, UniProt P61088).
T2 sequence (P61088 whole entry): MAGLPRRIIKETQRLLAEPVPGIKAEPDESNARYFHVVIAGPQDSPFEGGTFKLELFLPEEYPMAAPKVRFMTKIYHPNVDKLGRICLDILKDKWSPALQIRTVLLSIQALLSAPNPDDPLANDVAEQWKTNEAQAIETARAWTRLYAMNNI
Type of assay: functional.

Assay [30] addresses Intestinal-type alkaline phosphatase (Homo sapiens, UniProt P09923). Briefly: human intestinal alkaline phosphatase activators, dose response, biochemical, luminescence, uHTS hits (AID 463120). In kind it is functional.
Assay [31] in a line: HGIII-sPLA2 enzyme inhibition potency – biochemical, QFRET, IC50, dose response (AID 743457).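 Also: green fluorescence rise as the enzyme cleaves BODIPY PC-A2 in liposomes.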

Each structure is given as a SMILES string. Activity calls are given as the source filed them.

As a reminder, the AC50 is the concentration at which the activity in the assay is half-maximal. The term EC50 denotes the concentration needed to bring the measured effect to its halfway point. What is called IC50 is the point on the concentration scale where inhibition reaches its midpoint.

T1 sequence (Q9NXA8 whole entry): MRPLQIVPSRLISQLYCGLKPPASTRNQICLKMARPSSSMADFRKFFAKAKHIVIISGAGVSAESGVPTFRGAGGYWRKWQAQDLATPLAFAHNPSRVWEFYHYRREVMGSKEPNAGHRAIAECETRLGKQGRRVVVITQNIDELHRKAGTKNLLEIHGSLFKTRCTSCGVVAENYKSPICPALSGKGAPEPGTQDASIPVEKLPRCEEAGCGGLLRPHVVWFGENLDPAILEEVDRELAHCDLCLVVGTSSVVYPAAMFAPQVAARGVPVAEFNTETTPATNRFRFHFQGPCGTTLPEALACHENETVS
Intestinal-type alkaline phosphatase, sequence (P09923 whole entry): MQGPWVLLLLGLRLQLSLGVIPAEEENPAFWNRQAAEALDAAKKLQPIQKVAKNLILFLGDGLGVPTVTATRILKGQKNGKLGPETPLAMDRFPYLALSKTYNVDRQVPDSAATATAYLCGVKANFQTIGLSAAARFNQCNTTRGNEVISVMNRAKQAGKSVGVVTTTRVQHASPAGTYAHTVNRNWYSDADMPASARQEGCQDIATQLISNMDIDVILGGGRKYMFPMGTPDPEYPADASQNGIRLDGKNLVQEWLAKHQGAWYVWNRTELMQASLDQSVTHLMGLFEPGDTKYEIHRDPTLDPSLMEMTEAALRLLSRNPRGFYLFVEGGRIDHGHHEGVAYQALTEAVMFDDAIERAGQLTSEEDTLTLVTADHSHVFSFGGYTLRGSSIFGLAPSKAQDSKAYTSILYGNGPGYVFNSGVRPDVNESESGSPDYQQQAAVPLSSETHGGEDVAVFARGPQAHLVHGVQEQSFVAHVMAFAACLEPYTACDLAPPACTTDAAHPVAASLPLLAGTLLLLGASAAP
Potassium channel subfamily K member 9, sequence (Q9NPC2 whole entry): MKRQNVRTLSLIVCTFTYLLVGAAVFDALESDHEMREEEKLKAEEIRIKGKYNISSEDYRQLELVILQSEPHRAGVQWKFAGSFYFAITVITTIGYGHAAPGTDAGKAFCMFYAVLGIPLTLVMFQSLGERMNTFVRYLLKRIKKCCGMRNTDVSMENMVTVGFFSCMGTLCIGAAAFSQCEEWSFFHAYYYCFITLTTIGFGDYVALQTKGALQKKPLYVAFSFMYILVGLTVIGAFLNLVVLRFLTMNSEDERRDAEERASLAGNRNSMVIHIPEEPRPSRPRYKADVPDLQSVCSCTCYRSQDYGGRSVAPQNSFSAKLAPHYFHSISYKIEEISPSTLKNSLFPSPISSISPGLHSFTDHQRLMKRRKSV
Paired box protein Pax-8, sequence (Q06710 whole entry): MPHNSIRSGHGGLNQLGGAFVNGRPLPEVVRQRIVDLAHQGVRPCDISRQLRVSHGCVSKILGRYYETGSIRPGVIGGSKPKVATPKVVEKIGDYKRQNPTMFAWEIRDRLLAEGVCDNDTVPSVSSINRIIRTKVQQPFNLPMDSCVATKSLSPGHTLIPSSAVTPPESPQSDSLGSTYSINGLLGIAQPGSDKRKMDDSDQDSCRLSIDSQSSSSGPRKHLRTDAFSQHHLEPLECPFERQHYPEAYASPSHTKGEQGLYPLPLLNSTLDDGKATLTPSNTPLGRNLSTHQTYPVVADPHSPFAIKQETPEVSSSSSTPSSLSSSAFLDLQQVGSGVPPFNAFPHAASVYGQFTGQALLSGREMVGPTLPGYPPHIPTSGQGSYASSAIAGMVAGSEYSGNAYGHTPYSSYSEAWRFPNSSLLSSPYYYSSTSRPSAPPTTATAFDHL
Protein disulfide-isomerase, sequence (P07237 whole entry): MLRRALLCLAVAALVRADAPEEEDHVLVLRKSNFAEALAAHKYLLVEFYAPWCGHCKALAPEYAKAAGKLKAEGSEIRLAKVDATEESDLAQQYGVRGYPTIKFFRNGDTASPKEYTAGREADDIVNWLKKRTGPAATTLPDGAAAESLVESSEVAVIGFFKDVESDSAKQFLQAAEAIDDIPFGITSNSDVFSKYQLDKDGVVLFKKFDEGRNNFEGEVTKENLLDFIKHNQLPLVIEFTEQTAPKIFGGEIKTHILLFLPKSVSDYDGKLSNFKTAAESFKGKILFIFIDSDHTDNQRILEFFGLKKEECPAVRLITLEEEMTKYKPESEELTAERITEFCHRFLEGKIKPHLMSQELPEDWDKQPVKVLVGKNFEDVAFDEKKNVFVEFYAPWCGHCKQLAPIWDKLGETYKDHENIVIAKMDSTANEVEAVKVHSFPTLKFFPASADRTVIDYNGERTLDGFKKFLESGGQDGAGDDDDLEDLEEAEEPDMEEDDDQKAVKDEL
C-C chemokine receptor type 6, sequence (P51684 whole entry): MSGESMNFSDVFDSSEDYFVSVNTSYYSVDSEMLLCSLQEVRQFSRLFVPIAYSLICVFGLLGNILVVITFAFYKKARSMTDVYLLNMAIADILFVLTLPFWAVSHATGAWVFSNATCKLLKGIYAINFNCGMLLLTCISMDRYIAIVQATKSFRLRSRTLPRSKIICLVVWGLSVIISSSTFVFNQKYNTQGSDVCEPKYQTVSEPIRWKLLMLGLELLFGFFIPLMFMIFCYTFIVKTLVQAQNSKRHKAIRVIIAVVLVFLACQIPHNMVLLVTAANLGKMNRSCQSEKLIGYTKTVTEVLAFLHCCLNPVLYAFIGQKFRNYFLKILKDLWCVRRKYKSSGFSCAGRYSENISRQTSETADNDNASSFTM
C-X-C chemokine receptor type 4, sequence (P61073 whole entry): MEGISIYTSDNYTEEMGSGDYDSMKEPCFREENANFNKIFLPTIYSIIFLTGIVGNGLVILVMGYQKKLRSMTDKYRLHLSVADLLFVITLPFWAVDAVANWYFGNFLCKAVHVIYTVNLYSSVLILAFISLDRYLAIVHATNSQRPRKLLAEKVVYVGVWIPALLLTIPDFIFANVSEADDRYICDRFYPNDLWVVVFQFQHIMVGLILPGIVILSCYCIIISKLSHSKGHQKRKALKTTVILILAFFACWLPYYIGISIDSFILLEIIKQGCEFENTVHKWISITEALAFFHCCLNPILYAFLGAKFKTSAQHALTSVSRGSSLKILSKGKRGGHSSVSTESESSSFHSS
Potassium channel subfamily K member 3, sequence (O14649 whole entry): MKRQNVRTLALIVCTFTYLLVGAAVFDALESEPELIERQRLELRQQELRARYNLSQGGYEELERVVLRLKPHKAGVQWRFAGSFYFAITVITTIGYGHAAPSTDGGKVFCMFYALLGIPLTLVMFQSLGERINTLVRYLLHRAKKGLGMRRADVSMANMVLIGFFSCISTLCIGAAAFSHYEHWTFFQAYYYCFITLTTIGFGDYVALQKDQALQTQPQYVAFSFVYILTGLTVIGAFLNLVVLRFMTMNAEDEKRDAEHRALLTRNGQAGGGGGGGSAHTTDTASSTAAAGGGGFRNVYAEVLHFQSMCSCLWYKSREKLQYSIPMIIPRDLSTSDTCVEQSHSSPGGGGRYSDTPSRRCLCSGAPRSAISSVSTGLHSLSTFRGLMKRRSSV
Kallikrein-7, sequence (P49862 whole entry): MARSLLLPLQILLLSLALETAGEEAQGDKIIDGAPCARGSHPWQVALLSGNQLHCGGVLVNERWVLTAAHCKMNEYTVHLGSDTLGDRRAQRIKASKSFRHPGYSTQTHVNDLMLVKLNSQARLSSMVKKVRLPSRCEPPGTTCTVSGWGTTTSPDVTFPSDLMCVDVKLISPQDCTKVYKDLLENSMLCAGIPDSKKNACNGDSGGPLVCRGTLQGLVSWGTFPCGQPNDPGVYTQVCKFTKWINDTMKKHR

Take `CCOC(=O)C1(CCOc2ccccc2)CCN(C(=O)OC(C)(C)C)CC1`: the AC50 in assay [1] was 44.4 µM (active); in [2], > 30 µM (inactive).

With `O=C1C(NS(=O)(=O)c2ccccc2)=C(N2CCOCC2)C(=O)c2ccccc21`, the AC50 in assay [3] and in [4] was > 70 µM (inactive) each time.

On to `COc1ccccc1NC1=C(C(N)=O)C(=N)C(C(=O)Nc2cccc(Cl)c2Cl)S1` (centres undefined), for which the EC50 in the assay on BJ [5] was 14.5 µM (active); in the assay with BJ [6], 33.3 µM (inconclusive); in the assay on BJ [7], 22.3 µM (active); in [8], 4.27 µM (active). Further, in assay [9], the concentration at half-maximal activity (AC50) was 6.08 µM (active).

As to `Cc1nc2ccc(NC(=O)N3CCCCC3)cc2nc1C`, the EC50 on Kallikrein-7 is 5.48 µM (active).

As to `Oc1ccc(-c2[nH]nc(C(F)(F)F)c2-c2ccccc2)c(O)c1`, the IC50 was 666 nM (active) in [10] and 547 nM (active) in assay [11]. For the same compound, the AC50 with INS1 is 3.81 µM (active); in assay [12] it was 283 nM (active); in assay [13], 53.2 µM (active); in assay [14] it was 2.63 µM (active); in assay [15] it was 473 nM (active).

On to `COc1ccccc1NC(=O)c1cccc(NC(=O)CC2CCCC2)c1`, for which the figures for the IC50 in assay [16] and in assay [17] were 2.63 µM (active) and 86 nM (active), respectively.

Consider `O=C(NCc1nc2ccccc2[nH]1)C1=C[C@@H](c2ccc3c(c2)OCO3)C[C@@H](OCCCCO)O1`, for which the IC50 in [18] is > 83.3 µM (inactive).

On to `COc1ccc(-c2nnn(CC(=O)N(Cc3ccco3)C(C(=O)NCC3CCCO3)c3ccco3)n2)cc1` (centres undefined), for which, in [19], the AC50 is > 30 µM (inactive).

As to `COc1ccc(-c2ccc([C@@H]3[C@@H]4CN(Cc5cc(OC)cc(OC)c5)C[C@H]3N4)cc2)cc1`, the concentration at half-maximal activity (AC50) on Paired box protein Pax-8 was 10.1 µM (active); in [20] it was 10.5 µM (active); in [21] it was 21.5 µM (active); in [22] it was 11.8 µM (active); in assay [23], 23.8 µM (active); in assay [24] it was 2.24 µM (active). For the same compound, the AC50 in assay [25] is 6.38 µM (active).

For the compound `Cc1ccc(S(=O)(=O)N(C)C[C@@H]2OCCCC[C@@H](C)Oc3ccc(NS(=O)(=O)c4ccc(Cl)cc4)cc3C(=O)N([C@@H](C)CO)C[C@H]2C)cc1`, the AC50 in assay [26] is > 30 µM (inactive).

Consider `COc1ccccc1NC(=O)CN1C2CCCC1CC(NC(=O)c1cc(OC)c(OC)c(OC)c1)C2` (centres undefined), for which the IC50 in [27] and in [28] was > 79 µM (inactive) throughout.

For `COc1ccc(NC(S)=NNC(=O)c2nnn(-c3ccccc3)c2C)cc1`, the IC50 is > 20 µM (inactive) in [29] and > 122 µM (inactive) in [31]. For the same compound, in assay [30], the EC50 is 14.2 µM (active).

Source of the values: ChEMBL document CHEMBL1201862, “PubChem BioAssay data set” (2004).
